The source of these data is paper PMC8635421, “Illumination of serotonin transporter mechanism and role of the allosteric site” (Science Advances, 2021).

As usually defined, the Ki is a dissociation constant, usually derived from enzyme kinetics or from competition with a known ligand.

The target in one experiment is T1, SERT allosteric site (Homo sapiens, UniProt P31645, I291A/T439S).
T1 construct: GFP (C); Strep tag (purification tag); made in house; host or cells: HEK-293S GnTI- cells, baculovirus-mediated transduction
The experiment in a line: [3H]VLZ competition binding (SPA) in the presence of imipramine, allosteric site. Particulars: 800 nM [3H]VLZ and 800 nM imipramine, NaCl; read-out: Ki, competition with [3H]VLZ (affinity for the allosteric site). The procedure: (§1) All the competition-binding experiments were performed using scintillation proximity assays (SPAs) ([58]) with Cu-YSi beads (1 mg ml^−1) in SPA buffer containing 20 mM tris-HCl (pH 8), 100 mM NaCl, or 100 mM KCl. […] For the [^3H]paroxetine experiments, 1 nM SERT was used along with 0.3 μM to 10 mM of the cold competitors and 20 nM [^3H]paroxetine. […] Experiments were measured in triplicate. The error bars for each data point represent the SEM Ki values and were determined with the Cheng-Prusoff equation ([59]) in GraphPad Prism.

In experiment [1] the target is T2, SERT (Homo sapiens, UniProt P31645).
T2 construct: N- and C-terminally truncated but otherwise wild-type (ΔN72, ΔC13); GFP (C); Strep tag (purification tag); made in house; host or cells: HEK-293S GnTI- cells, baculovirus-mediated transduction
The experiment in a line: biochemical. It is filed as binding. As to conditions: competition with [3H]paroxetine, SERT in nanodiscs, 100 mM NaCl, 20 nM [3H]paroxetine, n = 3 technical replicates. As for the experimental part:
as §1

Experiment [2] has as its target T2, SERT. The experiment in a line: Uptake of 3H-labeled N-indole methyl derivative in HEK-293S GnTI- cells transduced with ΔN72/C13 SERT. The experiment is classed as cell-based. Particulars: 3H-labeled compound, fig. S3H. The procedure:
To measure the uptake of the N-indole methyl derivative, 1 × 10^5 HEK-293S GnTI^− cells were transduced with viruses for ΔN72/C13 SERT. The cells were plated into 96-well plates coated with poly-D-lysine. After 24 hours, cells were washed with uptake buffer [25 mM Hepes-tris (pH 7), 130 mM NaCl, 5.4 mM KCl, 1.2 mM CaCl2, 1.2 mM MgSO4, 1 mM ascorbic acid, and 5 mM glucose]. The custom-synthesized [^3H]3-(2-aminoethyl)-1-methyl-1H-indol-5-ol hydrochloride isotope was diluted 1:1000 with unlabeled ligand, and a final concentration 0.78 to 100 μM was added to the cells. Uptake was stopped at 5 min by rapidly washing cells three times with 100 μl of uptake buffer, solubilizing with 20 μl of 1% Triton-X100, followed by addition of 200 μl of scintillation fluid to each well. A final concentration of 100 μM S-citalopram was added to the cells to estimate nonspecific counts. The amount of labeled 3-(2-aminoethyl)-1-methyl-1H-indol-5-ol hydrochloride was measured by counting in a standard 96-well plate using a MicroBeta scintillation counter.

T2 sequence (P31645 73-617 limits assumed): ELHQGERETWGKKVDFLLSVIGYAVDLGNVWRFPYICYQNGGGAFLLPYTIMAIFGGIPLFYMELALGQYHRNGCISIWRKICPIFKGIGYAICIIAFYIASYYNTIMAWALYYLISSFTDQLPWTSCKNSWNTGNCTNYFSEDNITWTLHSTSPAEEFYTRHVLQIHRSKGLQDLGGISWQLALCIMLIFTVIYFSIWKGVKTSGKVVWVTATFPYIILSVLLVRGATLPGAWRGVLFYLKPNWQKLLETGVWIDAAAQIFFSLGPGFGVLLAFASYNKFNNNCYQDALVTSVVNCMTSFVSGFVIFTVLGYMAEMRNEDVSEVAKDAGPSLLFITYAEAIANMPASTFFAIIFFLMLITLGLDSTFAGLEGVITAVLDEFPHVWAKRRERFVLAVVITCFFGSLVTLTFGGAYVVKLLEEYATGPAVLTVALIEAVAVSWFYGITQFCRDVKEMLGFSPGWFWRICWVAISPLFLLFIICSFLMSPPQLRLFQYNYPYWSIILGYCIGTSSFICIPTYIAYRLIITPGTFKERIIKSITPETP
T1 sequence (P31645 whole entry I291A/T439S): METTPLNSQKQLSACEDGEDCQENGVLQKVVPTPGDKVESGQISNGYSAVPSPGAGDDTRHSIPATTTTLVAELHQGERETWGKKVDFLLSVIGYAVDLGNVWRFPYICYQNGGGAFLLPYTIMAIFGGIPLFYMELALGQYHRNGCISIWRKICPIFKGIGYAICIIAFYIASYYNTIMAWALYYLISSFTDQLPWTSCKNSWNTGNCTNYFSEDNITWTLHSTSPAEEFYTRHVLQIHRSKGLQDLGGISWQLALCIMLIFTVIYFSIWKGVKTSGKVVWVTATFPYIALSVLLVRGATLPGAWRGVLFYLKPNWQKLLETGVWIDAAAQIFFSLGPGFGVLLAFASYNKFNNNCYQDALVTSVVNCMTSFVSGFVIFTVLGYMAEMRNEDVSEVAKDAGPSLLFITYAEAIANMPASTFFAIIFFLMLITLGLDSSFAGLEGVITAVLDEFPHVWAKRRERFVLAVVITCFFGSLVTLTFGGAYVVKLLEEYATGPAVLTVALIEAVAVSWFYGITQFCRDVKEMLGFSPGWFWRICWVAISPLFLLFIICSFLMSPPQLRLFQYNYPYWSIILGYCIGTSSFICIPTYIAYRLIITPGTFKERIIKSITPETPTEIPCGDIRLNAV

Take `Cl.Cn1cc(CCN)c2cc(O)ccc21` [3-(2-aminoethyl)-1-methyl-1H-indol-5-ol hydrochloride]: the Ki was 24.9 ± 5.4 µM at SERT allosteric site and 5.4 ± 1 µM at SERT [1]. In addition, the “substrate for SERT (uptake)” value on SERT [2] is recorded as “robust substrate”.

As to `CNCCc1c[nH]c2ccc(O)cc12` [N-ω-methyl-5-hydroxytryptamine], affinity on SERT [1] was put at a Ki of 2.8 ± 0.9 µM.

On to `CNCCc1c[nH]c2ccc(OC)cc12` [5-methoxy-N-methyltryptamine], for which the affinity on SERT [1] corresponds to a Ki of 3.9 ± 0.9 µM.
